Measurements from PMC12472494, “Anticonvulsant Potential of 1-Aryl-6,7-dimethoxy-1,2,3,4-tetrahydroisoquinolines: Insights from Strychnine and Nicotine Models in In Vivo and In Silico Studies” (Pharmaceuticals, 2025).
Entries after “also recorded” stand apart in the source; their conditions may differ.

Key:
[1] = tested on: strychnine-induced seizures; assay: Strychnine-induced seizure model; assay type: in vivo, mice; details: for survival rate of strychnine-poisoned animals: dose not given
Text: (§1) The anticonvulsant effects of the examined substances were studied in male white mice weighing 18–22 g, divided into the following groups: control (including the strychnine and nicotine groups), carbamazepine group, Convulex group, and experimental groups (one for each tested substance). Simple randomization (“heads or tails” coin toss) was used to assign animals to groups. Each group contained 10 animals. Healthy animals were included in the experiments after a 14-day quarantine period. No animals were excluded from the study. Convulsant agents were administered subcutaneously at doses of 10.0 mg/kg for nicotine (Sigma–Aldrich, Saint Louis, MO, USA) and 1.5 mg/kg for strychnine (Sigma–Aldrich, Saint Louis, MO, USA), 60 min after the oral administration of the test substances at doses ranging from 0.1 to 10 mg/kg. The onset time, duration of tremors and seizures, and survival rate of the animals were recorded. Carbamazepine (Darnitsa, Kiev, Ukraine) at doses of 5.0–10.0 mg/kg and Convulex (valproate) (Gerot Pharmazeutika GmbH, Vienna, Austria) at doses of 75.0–100.0 mg/kg (based on the therapeutic anticonvulsant dose) were used as reference drugs.
(§2) Data were presented as mean ± SD for different groups. Statistical analysis was performed using OriginPro 9.0 (MicroCal Software, Northampton, MA, USA), with p < 0.05 considered statistically significant.

[2] = tested on: tremorogenic and convulsive actions of nicotine; assay: Nicotine-induced tremor and seizure model; assay type: in vivo, mice; details: for responders at 1 mg/kg: po
Text: as §1, §2

[3] = parameters: method as in PMID 36677539; details: per os; cited from earlier work
[4] = Mus musculus, oral dose 1.0 mg/kg 60 min before strychnine 1.5 mg/kg s.c., N = 10, read-out: Survival Rate
[5] = oral dose 1.0 mg/kg 60 min before strychnine 1.5 mg/kg s.c., mean ± SD, N = 10
[6] = Mus musculus, read-out: Survival Rate
[7] = oral dose 1.0 mg/kg 60 min before nicotine 10 mg/kg s.c., mean ± SD, N = 10
[8] = Mus musculus, sc, read-out: Survival Rate
[9] = dose 75.0 mg/kg, strychnine 1.5 mg/kg s.c.
[10] = dose 100.0 mg/kg, strychnine 1.5 mg/kg s.c.
[11] = doses of 75–100 mg/kg, versus control
[12] = dose 75.0 mg/kg, nicotine 10 mg/kg s.c.
[13] = dose 100.0 mg/kg, nicotine 10 mg/kg s.c.

Structure (SMILES)	responders at 1 mg/kg [1, 4] [%]	Duration of Tremor and Seizures [1, 5] [min]	Latency to Tremor and Seizure Onset [1, 5] [min]	responders at 1 mg/kg [2, 6] [%]	Duration of Seizures [2, 7] [min]	Latency to Seizure Onset [2, 7] [min]	LD50 [3]	further results
COc1cc2c(cc1OC)C(c1ccccc1Cl)NCC2 (stereo not drawn) [Compound 10, 1-(2′-Chlorophenyl)-6,7-dimethoxy-1,2,3,4-tetrahydroisoquinoline]	30	0.60 ± 0.4	17.2 ± 1.7	70	9.2 ± 0.9	2.2 ± 0.03	264.2 (224.8 ± 293.9) mg/kg	–
COc1cc2c(cc1OC)C(c1cc(Br)c(O)c(OC)c1)NCC2 (stereo not drawn) [Compound 28, 1-(5′-Bromo-4′-hydroxy-3′-methoxyphenyl)-6,7-dimethoxy-1,2,3,4-tetrahydroisoquinoline]	20	0.34 ± 0.8	15.5 ± 1.5	70	9.2 ± 0.4	2.7 ± 0.04	1532.7 (1471.5 ± 1579.5) mg/kg	survival of poisoned animals compared to carbamazepine and valproate (in words) ([2]; mouse, in vivo): did not improve the survival
COc1ccc(C2NCCc3cc(OC)c(OC)cc32)cc1OC (stereo not drawn) [Compound 22, 1-(3′,4′-Dimethoxyphenyl)-6,7-dimethoxy-1,2,3,4-tetrahydroisoquinoline]	30	0.71 ± 0.6	12.7 ± 1.3	80	–	2.2 ± 0.04	666.6 (557.9 ± 760.2) mg/kg	survival rate of strychnine-poisoned animals [1]: no more than 40%
COc1ccc(C2NCCc3cc(OC)c(OC)cc32)cc1O (stereo not drawn) [Compound 20, 1-(3′-Hydroxy-4′-methoxyphenyl)-6,7-dimethoxy-1,2,3,4-tetrahydroisoquinoline]	90	0.63 ± 0.7	18.2 ± 1.4	70	11.0 ± 0.7	2.8 ± 0.07	964.8 (916.5 ± 998.2) mg/kg	survival rate of strychnine-poisoned animals [1]: ~90%; effect on the duration of the seizures ([1]; doses of 1–10 mg/kg): minimal effect; increase of animal survival ([1]; doses of 1–10 mg/kg): 90%; extension of the latency period for seizures ([1]; doses of 1–10 mg/kg, versus control): 27–86%; activity against strychnine-induced seizures (in words) ([1]; ranking within the series): most active; also recorded: highest activity
COc1cc2c(cc1OC)C(c1ccccc1[N+](=O)[O-])NCC2 (stereo not drawn) [Compound 7, 1-(2′-Nitrophenyl)-6,7-dimethoxy-1,2,3,4-tetrahydroisoquinoline]	40	0.32 ± 0.7	14.2 ± 1.7	70	7.6 ± 0.8	2.3 ± 0.07	948.9 (916.8 ± 975.8) mg/kg	–
COc1cc2c(cc1OC)C(c1ccc3c(c1)OCO3)NCC2 (stereo not drawn) [Compound 29, 1-(3′,4′-Methylenedioxyphenyl)-6,7-dimethoxy-1,2,3,4-tetrahydroisoquinoline]	50	0.32 ± 0.9	12.5 ± 1.8	90	3.7 ± 0.9	2.5 ± 0.07	267.2 (226.3 ± 301.1) mg/kg	survival rate of the animals increased to ([2]; at low doses (0.1–5 mg/kg)): 90–100%; activity against tremorogenic and convulsive actions of nicotine versus reference drugs (in words) ([2]; doses of 0.1–5 mg/kg): comparable activity to the reference drugs
CCCC(CCC)C(=O)O [Valproate (Convulex), Valproate, reference compound]	–	–	–	–	–	–	–	responders at 75 mg/kg [1, 8]: 40%; responders at 100 mg/kg [1, 8]: 20%; Duration of Tremor and Seizures [1, 9]: 0.34 ± 0.6 min; Latency to Tremor and Seizure Onset [1, 9]: 15.4 ± 1.5 min; Duration of Tremor and Seizures [1, 10]: 0.32 ± 0.4 min; Latency to Tremor and Seizure Onset [1, 10]: 14.3 ± 1.3 min; increase of latency time [1, 11]: 46–57%; reduction of the duration of seizures [1, 11]: 53%; increase of the survival rate of the animals ([1]; reference drugs, versus control (100% died)): 20–40%; responders at 75 mg/kg ([2]; Mus musculus, sc, dose 75.0 mg/kg, nicotine 10 mg/kg s.c., read-out: Survival Rate): 90%; responders at 100 mg/kg ([2]; Mus musculus, sc, dose 100.0 mg/kg, nicotine 10 mg/kg s.c., read-out: Survival Rate): 90%; Duration of Seizures [2, 12]: 6.2 ± 0.4 min; Latency to Seizure Onset [2, 12]: 1.2 ± 0.04 min; Duration of Seizures [2, 13]: 10.8 ± 0.8 min; Latency to Seizure Onset [2, 13]: 1.5 ± 0.06 min; survival rate ([2]; reference drugs): 90%
